Values joined by “and” are separate entries in the source; they are usually repeats but may differ in a detail not shown here. Identical values can stand only once. Toxic doses and inconclusive results are not listed. Cut-off read from the data, not from the text of the source: active = T/C of 150% or more; inactive = T/C below 125%.
Test system: L1210 leukemia ip in BDF1 mice, survival T/C
Test: NCI In Vivo Anticancer Drug Screen. Data for tumor model L1210 Leukemia (intraperitoneal) in B6D2F1 (BDF1) mice
Conditions: endpoint: mean survival time, higher = longer survival
Outline: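 Value reflects the ratio of survival in compound-treated mice to survival in vehicle-treated controls, with both groups carrying the same transplanted tumor.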

[1] = dose: 100.0 mg/kg/injection, schedule: Q01DX009 (ip), vehicle: saline with Tween-80
[2] = dose: 100.0 mg/kg/injection, schedule: Q04DX003 (ip), vehicle: saline with Tween-80
[3] = dose: 200.0 mg/kg/injection, schedule: Q01DX009 (ip), vehicle: saline with Tween-80
[4] = dose: 400.0 mg/kg/injection, schedule: Q01DX009 (ip), vehicle: saline with Tween-80
[5] = dose: 100.0 mg/kg/injection, schedule: Q01DX009 (ip), vehicle: Klucel (hydroxypropylcellulose) (HPC)
[6] = dose: 200.0 mg/kg/injection, schedule: Q01DX009 (ip), vehicle: Klucel (hydroxypropylcellulose) (HPC)
[7] = dose: 400.0 mg/kg/injection, schedule: Q01DX009 (ip), vehicle: Klucel (hydroxypropylcellulose) (HPC)
[8] = dose: 100.0 mg/kg/injection, schedule: Q04DX003 (ip), vehicle: Klucel (hydroxypropylcellulose) (HPC)
[9] = dose: 200.0 mg/kg/injection, schedule: Q04DX003 (ip), vehicle: Klucel (hydroxypropylcellulose) (HPC)
[10] = dose: 400.0 mg/kg/injection, schedule: Q04DX003 (ip), vehicle: Klucel (hydroxypropylcellulose) (HPC)
[11] = dose: 25.0 mg/kg/injection, schedule: Q04DX002 (ip), vehicle: Klucel (hydroxypropylcellulose) (HPC)
[12] = dose: 25.0 mg/kg/injection, schedule: Q04DX003 (ip), vehicle: Klucel (hydroxypropylcellulose) (HPC)
[13] = dose: 50.0 mg/kg/injection, schedule: Q04DX002 (ip), vehicle: Klucel (hydroxypropylcellulose) (HPC)
[14] = dose: 50.0 mg/kg/injection, schedule: Q04DX003 (ip), vehicle: Klucel (hydroxypropylcellulose) (HPC)
[15] = dose: 100.0 mg/kg/injection, schedule: Q04DX002 (ip), vehicle: Klucel (hydroxypropylcellulose) (HPC)
[16] = dose: 200.0 mg/kg/injection, schedule: Q04DX002 (ip), vehicle: Klucel (hydroxypropylcellulose) (HPC)
[17] = dose: 100.0 mg/kg/injection, schedule: Q01DX001 (ip), vehicle: carboxymethylcellulose (CMC)
[18] = dose: 200.0 mg/kg/injection, schedule: Q01DX001 (ip), vehicle: carboxymethylcellulose (CMC)
[19] = dose: 400.0 mg/kg/injection, schedule: Q01DX001 (ip), vehicle: carboxymethylcellulose (CMC)
[20] = dose: 400.0 mg/kg/injection, schedule: Q04DX002 (ip), vehicle: Klucel (hydroxypropylcellulose) (HPC)

Measured: T/C

CC1(C)C2CCC3C(C#N)C(CCC#N)C=CC3C21 (stereo not drawn)
inactive: dose: 100.0 mg/kg/injection, schedule: Q04DX003 (sc), vehicle: olive oil, sesame oil, peanut oil 98 % of control | dose: 200.0 mg/kg/injection, schedule: Q04DX003 (sc), vehicle: olive oil, sesame oil, peanut oil 97 % of control | dose: 400.0 mg/kg/injection, schedule: Q04DX003 (sc), vehicle: olive oil, sesame oil, peanut oil 101 % of control

CCOCN1CCCC1
inactive: dose: 25.0 mg/kg/injection, schedule: Q01DX009 (ip), vehicle: saline with Tween-80 101 % of control | dose: 50.0 mg/kg/injection, schedule: Q01DX009 (ip), vehicle: saline with Tween-80 96 % of control | dose: 50.0 mg/kg/injection, schedule: Q04DX003 (ip), vehicle: saline with Tween-80 91 % of control | dose: 100.0 mg/kg/injection, schedule: Q01DX001 (ip), vehicle: saline with Tween-80 104 % of control | [1] 95 % of control | [2] 103 % of control | dose: 200.0 mg/kg/injection, schedule: Q01DX001 (ip), vehicle: saline with Tween-80 110 % of control

CCCCCCCCC1C(CCCCCCCC(=O)OC)SC(F)(F)C1(F)F (stereo not drawn)
inactive: [1] 95 % of control | [3] 93 % of control | [4] 102 % of control

CCCCCCCCCCCCCCCCCC(=O)Oc1ccc(OCc2ccccc2)cc1
inactive: [5] 105 % of control | [6] 95 % of control | [7] 97 % of control

Cc1ccc(NC(=O)Nc2ccccc2C(N)=O)c([N+](=O)[O-])c1
inactive: [8] 90 % of control | [9] 87 % of control | [10] 90 % of control

O=Nc1ccc(O)cc1
inactive: dose: 25.0 mg/kg/injection, schedule: Q01DX009 (ip), vehicle: Klucel (hydroxypropylcellulose) (HPC) 96 % of control | [11] 104 % of control | [12] 102 % of control | dose: 50.0 mg/kg/injection, schedule: Q01DX009 (ip), vehicle: Klucel (hydroxypropylcellulose) (HPC) 102 % of control and 103 % of control | [13] 100 % of control | [14] 98 % of control | [5] 112 % of control and 123 % of control | [15] 104 % of control | [8] 100 % of control | [6] 100 % of control and 110 % of control | [16] 103 % of control | [9] 104 % of control

[CH3][Sb]([CH3])[S]C1OC(CO)C(O)C(O)C1O (stereo not drawn)
inactive: dose: 12.5 mg/kg/injection, schedule: Q04DX003 (ip), vehicle: Klucel (hydroxypropylcellulose) (HPC) 99 % of control | [12] 89 % of control | [14] 95 % of control

NC(=O)NNC(=O)c1ccccc1
inactive: [5] 100 % of control | [8] 96 % of control | [6] 104 % of control | [9] 94 % of control | [7] 98 % of control | [10] 100 % of control

O=C(O)/C=C/c1ccc(/C=C/C(=O)O)cc1
inactive: [1] 95 % of control | [2] 98 % of control | [3] 88 % of control | dose: 200.0 mg/kg/injection, schedule: Q04DX003 (ip), vehicle: saline with Tween-80 96 % of control | [4] 103 % of control | dose: 400.0 mg/kg/injection, schedule: Q04DX003 (ip), vehicle: saline with Tween-80 95 % of control

O=P(c1ccccc1)(N1CCOCC1)N1CCOCC1
inactive: dose: 75.0 mg/kg/injection, schedule: Q04DX003 (ip), vehicle: saline 94 % of control | dose: 150.0 mg/kg/injection, schedule: Q04DX003 (ip), vehicle: saline 104 % of control | dose: 300.0 mg/kg/injection, schedule: Q04DX003 (ip), vehicle: saline 110 % of control

O=C(C[N+]12CN3CN(CN(C3)C1)C2)c1ccc(Cl)cc1
inactive: dose: 40.0 mg/kg/injection, schedule: Q01DX Z (ip), vehicle: saline 98 % of control | dose: 44.0 mg/kg/injection, schedule: Q01DX Z (ip), vehicle: carboxymethylcellulose (CMC) 109 % of control | dose: 50.0 mg/kg/injection, schedule: Q01DX001 (ip), vehicle: carboxymethylcellulose (CMC) 107 % of control | dose: 60.0 mg/kg/injection, schedule: Q01DX Z (ip), vehicle: saline 107 % of control | dose: 73.0 mg/kg/injection, schedule: Q01DX Z (ip), vehicle: carboxymethylcellulose (CMC) 110 % of control | dose: 90.0 mg/kg/injection, schedule: Q01DX Z (ip), vehicle: saline 109 % of control | [17] 102 % of control | dose: 110.0 mg/kg/injection, schedule: Q01DX Z (ip), vehicle: carboxymethylcellulose (CMC) 113 % of control | dose: 135.0 mg/kg/injection, schedule: Q01DX Z (ip), vehicle: saline 109 % of control | dose: 165.0 mg/kg/injection, schedule: Q01DX Z (ip), vehicle: carboxymethylcellulose (CMC) 115 % of control | [18] 100 % of control | dose: 202.5 mg/kg/injection, schedule: Q01DX Z (ip), vehicle: saline 112 % of control | dose: 303.7 mg/kg/injection, schedule: Q01DX Z (ip), vehicle: saline 113 % of control | [19] 107 % of control

COc1ccc(-c2ccccc2C(=O)O)cc1
inactive: [17] 107 % of control | [18] 96 % of control | [19] 100 % of control

O=C1NC(=O)C(c2cc(Cl)co2)N1 (stereo not drawn)
inactive: [8] 105 % of control | [9] 108 % of control | [10] 101 % of control

F[Si](F)(c1ccccc1)c1ccccc1
inactive: dose: 75.0 mg/kg/injection, schedule: Q01DX001 (ip), vehicle: saline 105 % of control | dose: 150.0 mg/kg/injection, schedule: Q01DX001 (ip), vehicle: saline 100 % of control

Cc1ccc(S(=O)(=O)OC2CN(S(C)(=O)=O)CC(OS(=O)(=O)c3ccc(C)cc3)CN(S(C)(=O)=O)C2)cc1 (stereo not drawn)
inactive: [11] 89 % of control | [13] 103 % of control | [15] 92 % of control

C=CCn1c(SCc2ccccc2)nccc1=O
inactive: [15] 111 % of control | [16] 122 % of control | [20] 108 % of control

NC(=O)C(c1ccccc1)N1CCCC1 (stereo not drawn)
inactive: dose: 25.0 mg/kg/injection, schedule: Q01DX009 (ip), vehicle: saline 91 % of control | dose: 25.0 mg/kg/injection, schedule: Q04DX003 (ip), vehicle: saline 98 % of control | dose: 50.0 mg/kg/injection, schedule: Q01DX009 (ip), vehicle: saline 94 % of control | dose: 50.0 mg/kg/injection, schedule: Q04DX003 (ip), vehicle: saline 97 % of control | dose: 100.0 mg/kg/injection, schedule: Q01DX009 (ip), vehicle: saline 91 % of control | dose: 100.0 mg/kg/injection, schedule: Q04DX003 (ip), vehicle: saline 95 % of control

CCCCCOC(=O)C(O)C(C)(Cl)c1ccccc1 (stereo not drawn)
inactive: [15] 100 % of control | [16] 111 % of control | [20] 100 % of control

O=C1c2ccccc2C(=O)C1(Br)C(Cl)c1ccccc1 (stereo not drawn)
inactive: [5] 95 % of control | [8] 96 % of control | [6] 101 % of control | [9] 103 % of control | [7] 97 % of control | [10] 97 % of control

CC/C=C(\C)C1(CCC)C(N)=NC(=O)N=C1N
inactive: dose: 75.0 mg/kg/injection, schedule: Q01DX001 (ip), vehicle: carboxymethylcellulose (CMC) 93 % of control | dose: 150.0 mg/kg/injection, schedule: Q01DX001 (ip), vehicle: carboxymethylcellulose (CMC) 91 % of control

Cc1cc(N(C)c2ccccc2)nc(N)n1
inactive: dose: 25.0 mg/kg/injection, schedule: Q01DX Z (ip), vehicle: methylcellulose (MC) 96 % of control

CCOC(=O)/C(C(=S)NC(=O)c1ccc(Br)cc1)=C(/C)N
inactive: dose: 100.0 mg/kg/injection, schedule: Q04DX003 (ip), vehicle: carboxymethylcellulose (CMC) 95 % of control | dose: 200.0 mg/kg/injection, schedule: Q04DX003 (ip), vehicle: carboxymethylcellulose (CMC) 90 % of control | dose: 400.0 mg/kg/injection, schedule: Q04DX003 (ip), vehicle: carboxymethylcellulose (CMC) 98 % of control
